{
  "source": "patent US20220380721A1",
  "about": "“METHOD FOR COUPLING ANTIBODY TO SURFACE OF CELL AND METHOD FOR APPLYING CELL COUPLED WITH THE ANTIBODY” (Xiamen Nuokangde Biological Technology Co., Ltd., priority 2019, published 2022)",
  "test_system": "NK92 cells",
  "assay": "Metabolic incorporation of azido sialic acid in NK92 cells, detected with FITC-Stau by confocal laser microscope",
  "format": "cell-based",
  "settings": "NK92 cells cultured with 100 μM 9N3-SA for 24-48 hours; FITC-Stau 100 μM, 37° C., 2-4 hours; compared with cells not modified",
  "method": "NK92 cells normally cultured are distributed into a 24-well plate and then cultured in a NK92 cell medium containing 9N3-SA with a final concentration of 100 μM for 24-48 hours. The NK92 cells are washed by PBS for 3 times, and the NK92 cell medium containing 9N3-SA is then replaced by a normal NK92 medium to obtain NK92 cells modified with the azide groups. In order to verify that the NK92 cells have been modified with the azide groups, in this embodiment, Fluorescein-Stau (FITC-Stau) (as shown in FIG. 3), a ligand molecule connected to fluorescein and able to orthogonally react with the azide groups, is synthesized. The FITC-Stau is added into a medium of the NK92 cell modified with the azide groups with a final concentration of 100 μM, incubated at 37° C. for 2-4 hours, and washed with PBS for 3 times, and fluorescence on the cell surface is then observed by a confocal laser microscope.",
  "data": [
    {"smiles": "COC(=O)[C@@]1(O)C[C@@H](O)[C@@H](NC(C)=O)C([C@H](O)[C@H](O)CN=[N+]=[N-])O1", "note": "(stereo partly shown) [9N3-SA]", "values": [
      {"measurement": "fluorescence on the cell surface after FITC-Stau labeling", "value": "strong fluorescence signal"}
    ]}
  ]
}
